Reference: patent publication US20210007351A1 (priority 2018, published 2021)

Test system: Phytophthora infestans Genotype 13_A2
Type: cell-based
Settings: 0.5%, 1% and 2% (all concentrations) in CMA with 0.5% DMSO; 7 days and 14 days post inoculation; 23 °C

Row | Structure (SMILES) | average mycelial extension into amended CMA agar (growth)
1 | C=CCc1ccc(O)c(OC)c1 [Eugenol, eugenol] | heavily reduced or absent altogether
2 | CC1(C)C2CCC1(C)C(O)C2O (racemic) [(+/−)-exo,exo-2,3-Camphanediol] | heavily reduced or absent altogether
